Entries after “also recorded” stand apart in the source; their conditions may differ.
What was measured:
[1] = DLS association of DAP with fondaparinux; format: binding
Method: (§1) Rivaroxaban (XARELTO®) alone, DAP alone, and DAP:rivaroxaban combinations at mass ratios of 1:1 and 10:1 were added into an aqueous solution and analyzed by dynamic light scattering (DLS) to assess association of the DAP and rivaroxaban. A similar experiment was conducted on apixaban (ELIQUIS®) alone, DAP alone, and DAP:apixaban combinations at mass ratios of 1:1, 10:1 and 100:1. Fondaparinux (ARIXTRA®) alone, DAP alone, and fondaparinux:DAP combinations at mass ratios of 1:1, 10:1 and 100:1 were similarly tested. LMWH (bemiparin; HIBOR®), alone, DAP alone, and LMWH:DAP combinations at mass ratios of 1:1, 10:1, and 100:1 were also tested. The concentration of LMWH tested was 0.1 mg/ml. Therefore, at 1:1, 0.1 mg/ml DAP was tested, at 10:1, 1 mg/ml was tested, and at 100:1, 10 mg/ml DAP was tested.

[2] = test system: dabigatran (PRADAXA®) anticoagulation; assay: DAP reversal of dabigatran (PRADAXA®) anticoagulation in vivo, aPTT; parameters: species or system rat; settings: 15.5 mg/kg PRADAXA®, 100 mg/kg DAP (FIG. 13)
[3] = test system: dabigatran etexilate (PRADAXA®) anticoagulation; assay: Rat tail transection bleeding assay, dabigatran etexilate; format: in vivo
Method: Rat tail bleeding assay or rat tail transection assay is an assay that measures blood loss, e.g., blood loss after drug administration. In one embodiment, where the effect of the compound of the invention (e.g., DAP) is being tested, at the Tmax of the anticoagulant, DAP is administered intravenously. After 20 minutes, rat tails are transected approximately 1 mm from the tip, placed in room temperature saline, and blood is collected for 30 minutes and weighed.
Three rats each were administered 2 mg of rivaroxaban. One rat received a sham reversal containing no DAP, the second received 2.5 mg of DAP, and the third received 12.5 mg DAP. A fourth fat received sham anticoagulant and reversal doses (“sham”). 20 minutes after the reversal dose, tails were transected 1 mm from the tip, placed in room temperature saline, and blood loss was collected for 30 minutes and then weighed.
Same procedures were used with 1.25 mg apixaban (ELIQUIS®) alone or in combination with 5 or 12.5 mg DAP; […]; and with 5 mg edoxaban (LIXIANA®) alone or in combination with 12.5 mg DAP.

[4] = Oral bioavailability of DAP in rats; format: in vivo, rat
[5] = test system: dabigatran (PRADAXA®) anticoagulation; assay: DAP reversal of dabigatran (PRADAXA®) anticoagulation in vivo, aPTT; parameters: species or system rat
Description: The activated partial thromboplastin time (aPTT) assay is an assay that measures how long it takes for the blood to clot. Blood samples are collected for direct measurement or in tubes with oxalate and citrate to arrest coagulation by calcium until the assay can be performed. In the assay, a phospholipid, an activator (silica, celite, kaolin, ellagic acid, etc.), and calcium are mixed into the plasma to induce coagulation. The assay measures the time until a thrombus (clot) forms.
A male albino rat, weighing 430 g, was administered 40 mg/kg of PRADAXA® (20 mg PRADAXA®; overdose of PRADAXA®) by oral gavage.
Approximately 2 hours into PRADAXA® treatment, 200 mg/kg DAP (100 mg DAP) was administered as an intravenous bolus injection. Approximately 2 hours later, the rat was administered a dose of 100 mg/kg of DAP (50 mg DAP). In another hour, the rat was administered another dose of 100 mg/kg of DAP (50 mg DAP). aPTT was measured throughout the course of the entire treatment.

[6] = test system: argatroban anticoagulation; assay: Argatroban dosed rats given IV DAP; format: in vivo, rat; settings: 200× IV dose of DAP
[7] = DLS association of DAP with LMWH (bemiparin); format: binding
Method: Dynamic light scattering (DLS) was used to assess association of 1 mg/ml unfractionated heparin and 1 mg/ml bemiparin (LMWH; HIBOR®), either alone or in combination with […] DAP in water (mass ratios of 100:1 of DAP to heparin or LMWH).
as §1

CYP enzymes = assay: CYP enzyme inhibition / substrate; format: in vitro ADME; settings: data not shown
[8] = Intravenous DAP tolerability in rats; format: in vivo, rat; settings: DAP i.v. at 100 mg/kg, 250 mg/kg and 400 mg/kg in rats

binding by DLS [1]: directly bound
oral bioavailability [4]: orally bioavailable
elimination half-life ([5]; inferred from return of anti-coagulation in rats): short elimination half-life
inhibition / substrate of CYP enzymes (CYP enzymes): did not inhibit or serve as a substrate
SMILES: N=C(N)NCCC[C@H](N)C(=O)NCCCN1CCN(CCCNC(=O)[C@@H](N)CCCNC(=N)N)CC1 (stereo in doubt) [DAP, 2-Amino-5-guanidino-pentanoic acid (3-{4-[3-(2-amino-5-guanidino-pentanoylamino)-propyl]-piperazin-1-yl}-propyl)-amide]
time until aPTT returned to normal after DAP [2]: ≤ 30 min
blood loss (blood collected over 30 minutes) ([3]; 15 mg dabigatran etexilate and 12.5 mg DAP, p<0.01 vs dabigatran etexilate only): reduced blood loss to sham dose levels
reversal of dabigatran, blood loss vs anticoagulant only ([3]; rat tail transection, 30 minutes): statistically significant reduction in blood loss
aPTT risen back after first DAP dose ([5]; 2 hours after 100 mg DAP): 79 s
aPTT risen after second DAP dose ([5]; after 50 mg DAP): 53 s
time until aPTT returned above baseline following DAP administration ([5]; both times (first and second DAP dose)): ≤ 60 min
time until aPTT below baseline after DAP ([5]; first dose, 100 mg DAP (200 mg/kg) i.v. bolus): ≤ 25 min
time until PRADAXA®-induced anti-coagulation returned after DAP ([5]; intravenous bolus dose of DAP in rats): 20 to 30 min
reversal of oral dabigatran anticoagulation in vivo ([5]; rats, aPTT): reversed
time until aPTT below baseline after DAP ([5]; second dose, 50 mg DAP (100 mg/kg)): ≤ 30 min
time until aPTT dropped to baseline after DAP ([5]; third dose, 100 mg/kg (50 mg) DAP i.v.): ≤ 20 min
anticoagulation of argatroban dosed rats after DAP [6]: remained anticoagulated
physical association / binding by DLS [7]: physically associated; also recorded: directly bound
adverse effects [8]: no adverse effect

Reference: patent US9877961B2, “Anticoagulant reversal agents” (PEROSPHERE INC., priority 2011, dated 2018)
